The record followed here is PMC5823406, “Vehicle development, pharmacokinetics and toxicity of the anti-invasive agent 4-fluoro-3’,4’,5’-trimethoxychalcone in rodents” (PLoS ONE, 2018).

The nature of series [1]: Whole blood C16 determination after 7-day dosing via medicated gels. The class given is in vivo, mouse. To be noted: for Blood concentration of C16: Average±SD. The protocol:
On the evening of day 6, blood was collected via the tail vein for the 0, 100 and 300 mg/kg C16 cohorts for determination of the whole blood C16 level. On the morning of day 7, mice of the 0, 100 and 300 mg/kg C16 cohorts were anesthetized by IP injection with 250 mg/kg of Avertin (20 mL/kg, preparation see Section E in S1 File). Blood for C16 determination and hematological and biochemical analysis was collected via cardiac exsanguination (600 μL to 1 mL). Detailed analysis protocols are described below. Afterward, animals were sacrificed by cervical dislocation.
Blood samples (25 μL) were collected via the tail vein or cardiac puncture (last time point). Blood was pipetted into a tube with 25 μL heparinized water (1 μL of sodium heparin (1000 units/mL) + 24 μL water) within 30 seconds of collection. The sample was pipetted up and down five times, immediately frozen on dry ice, and stored at -60°C to -80°C until analysis.
E.C. Whole blood C16 levels
Table AA. Individual blood concentration (ng/mL) for C16 in cohorts on medicated gel .
Cohort and animal Evening Morning
BLOQ: below the limit of quantitation (0.5 ng/mL). Samples that were below the limit of quantification were not used in the calculation of
Table BB. […]

The test system of the next series is Caco-2. Description: Caco-2 permeability and recovery. It is filed as in vitro ADME. To be noted: Caco-2, pH 7.4/7.4; 10 μM. An excerpt:
Table 3 In vitro physicochemical, stability and metabolism data. | column: Value
(Passage across Caco-2 layers is used to estimate intestinal permeability.)

Where “and” joins values, the source holds several entries; their conditions need not be identical. Equal entries are not always repeated.

Regarding `COc1cc(C(=O)/C=C/c2ccc(F)cc2)cc(OC)c1OC` [C16, 4-fluoro-3’,4’,5’-trimethoxychalcone], the “Blood concentration of C16” value came to 8.48 ± 2.28 ng/mL in series [1] (100 mg/kg cohort on medicated gel, Evening (day 6)); 31.2 ± 26.0 ng/mL in series [1] (100 mg/kg cohort on medicated gel, Morning (day 7)); 7.63 ± 5.07 ng/mL in series [1] (300 mg/kg cohort on medicated gel, Evening (day 6)); 38.1 ± 27.8 ng/mL in series [1] (300 mg/kg cohort on medicated gel, Morning (day 7)). Also, the “Individual blood concentration of C16” value in series [1] (100 mg/kg cohort on medicated gel, Evening, animals 2-1 to 2-4) is 8.39 ng/mL and 5.39 ng/mL and 9.33 ng/mL and 10.8 ng/mL; in series [1] (100 mg/kg cohort on medicated gel, Morning, animals 2-1 to 2-4) it was 11.5 ng/mL and 6.14 ng/mL and 56.2 ng/mL and 50.8 ng/mL; in series [1] (300 mg/kg cohort on medicated gel, Evening, animals 3-1, 3-3, 3-4) it was 3.51 ng/mL and 13.3 ng/mL and 6.09 ng/mL; in series [1] (300 mg/kg cohort on medicated gel, Morning, animals 3-1 to 3-4), 30.1 ng/mL and 21.6 ng/mL and 79.3 ng/mL and 21.3 ng/mL. For the same compound, the “Whole blood C16 concentrations versus projected EC50” value in series [1] (medicated gel, day 6 evening and day 7 morning) was “above its projected EC50”. For the same compound, the “Permeability A-B” value in the series on Caco-2 is on record as 10.4 10^−6 cm/s. Also, in the series with Caco-2, the “Permeability A-B: recovery” value is 17%. Moreover, in the series on Caco-2, the “Permeability B-A” value was 4.9 10^−6 cm/s. Also, the “Permeability B-A: recovery” value with Caco-2 was determined as 66%.
